Measured values taken from US9499538B2, “Estrogen receptor modulators and uses thereof” (Seragon Pharmaceuticals, Inc., priority 2012, dated 2016).

Columns and labels:
MCF-7 cells = test: Breast Cancer Cell Viability Assays (MCF-7, CellTiter-Glo); assay type: cell-based; details: 5 days' compound exposure; for IC50: Homo sapiens, MCF7, 120 h
Outline: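 Percent viability, background-subtracted against untreated wells, was taken from CellTiter-Glo luminescence after 5 days' exposure of MCF-7 cells. Compounds were tested at eleven semilog concentrations, final 0.3–0.000003 μM, in RPMI containing 10% FBS.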

ER-α in MCF-7 cells = molecular target: T1, ER-α in MCF-7 cells (Homo sapiens, UniProt P03372); test: Breast Cancer Cell ER-α In Cell Western Assay (SP1); assay type: cell-based; details: 4 or 24 hr post compound addition; for Emax: MCF7, SP1 antibody, read-out: ER-α In Cell Western Assay (SP1) Max Response; for DC50: SP1 antibody, read-out: ER-α In Cell Western Assay (SP1) IC50
T1 construct: endogenous in cells; host or cells: MCF-7
T1 sequence (P03372 1-595): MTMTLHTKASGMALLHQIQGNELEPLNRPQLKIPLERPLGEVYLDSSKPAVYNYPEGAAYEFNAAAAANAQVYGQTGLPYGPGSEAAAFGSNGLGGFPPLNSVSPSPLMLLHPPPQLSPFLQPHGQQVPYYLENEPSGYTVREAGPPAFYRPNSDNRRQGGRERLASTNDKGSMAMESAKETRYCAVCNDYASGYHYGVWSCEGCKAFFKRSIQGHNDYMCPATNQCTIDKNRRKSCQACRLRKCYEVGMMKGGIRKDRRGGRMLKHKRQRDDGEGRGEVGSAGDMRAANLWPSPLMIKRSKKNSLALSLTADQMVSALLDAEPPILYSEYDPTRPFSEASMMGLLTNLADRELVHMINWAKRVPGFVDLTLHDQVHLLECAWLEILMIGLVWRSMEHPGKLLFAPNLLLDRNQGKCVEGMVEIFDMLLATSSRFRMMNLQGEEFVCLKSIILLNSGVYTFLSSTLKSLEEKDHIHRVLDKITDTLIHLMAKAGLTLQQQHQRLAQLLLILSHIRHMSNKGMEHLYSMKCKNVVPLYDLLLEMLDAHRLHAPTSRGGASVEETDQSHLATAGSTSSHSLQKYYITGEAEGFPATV
Outline: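 ER-α levels quantified by in-cell western: SP1 signal normalised to DRAQ5 DNA stain, relative to untreated cells (% ER). Compounds at 0.3–0.000003 μM final, 11-point semilog series, 4 or 24 h exposure of MCF-7 cells grown in charcoal-stripped serum.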

| SMILES | MCF7 Viability Assay Max Response (MCF-7 cells) | IC50 (MCF-7 cells) [nM] | Emax (ER-α in MCF-7 cells) [%] | DC50 (ER-α in MCF-7 cells) [nM] |
| --- | --- | --- | --- | --- |
| Clc1cnccc1/C(=C(\c1ccc(/C=C/c2nnn[nH]2)cc1)c1ccc2scnc2c1)C1CCC1 [Example 176, 5-((E)-1-(4-((E)-2-(2H-Tetrazol-5-yl)vinyl)phenyl)-2-(3-chloropyridin-4-yl)-2-cyclobutylvinyl)benzo[d]thiazole] | ++ (++ = a single % value ≧ 40%) | ≤ 100 | ≥ 40 | ≤ 100 |
| Cc1cnccc1/C(=C(\c1ccc(/C=C/c2nnn[nH]2)cc1)c1ccc2scnc2c1)C1CCC1 [Example 177, 5-((E)-1-(4-((E)-2-(2H-Tetrazol-5-yl)vinyl)phenyl)-2-cyclobutyl-2-(3-methylpyridin-4-yl)vinyl)benzo[d]thiazole] | ++ (++ = a single % value ≧ 40%) | ≤ 100 | ≥ 40 | ≤ 100 |
| Fc1ccc(/C(=C(\c2ccc(/C=C/c3nnn[nH]3)cc2)c2ccc3nccn3c2)C2CCC2)c(Cl)c1 [Example 178, 6-((E)-1-(4-((E)-2-(2H-Tetrazol-5-yl)vinyl)phenyl)-2-(2-chloro-4-fluorophenyl)-2-cyclobutylvinyl)imidazo[1,2-a]pyridine] | ++ (++ = a single % value ≧ 40%) | ≤ 100 | ≥ 40 | ≤ 100 |
| CC/C(=C(/c1ccc(/C=C/C(=O)NCCO)cc1)c1ccc2[nH]ncc2c1)c1ccc(F)cc1Cl [Example 179, (E)-3-(4-((E)-2-(2-Chloro-4-fluorophenyl)-1-(1H-indazol-5-yl)but-1-en-1-yl)phenyl)-N-(2-hydroxyethyl)acrylamide] | ++ (++ = a single % value ≧ 40%) | ≤ 100 | ≥ 40 | ≤ 100 |
| Cc1cscc1/C(=C(\c1ccc(/C=C/C(=O)NCCO)cc1)c1ccc2scnc2c1)C1CCC1 [Example 180, (E)-3-(4-((E)-1-(Benzo[d]thiazol-5-yl)-2-cyclobutyl-2-(4-methylthiophen-3-yl)vinyl)phenyl)-N-(2-hydroxyethyl)acrylamide] | ++ (++ = a single % value ≧ 40%) | ≤ 100 | ≥ 40 | ≤ 100 |
| Cc1cscc1/C(=C(\c1ccc(/C=C/C(=O)NCCO)cc1)c1ccc2[nH]nc(F)c2c1)C1CCC1 [Example 181, (E)-3-(4-((E)-2-Cyclobutyl-1-(3-fluoro-1H-indazol-5-yl)-2-(4-methylthiophen-3-yl)vinyl)phenyl)-N-(2-hydroxyethyl)acrylamide] | ++ (++ = a single % value ≧ 40%) | ≤ 100 | ≥ 40 | ≤ 100 |
| O=C(/C=C/c1ccc(/C(=C(\c2ccccc2)C2CCC2)c2ccc3[nH]nnc3c2)cc1)NCCO [Example 182, (E)-3-(4-((E)-1-(1H-Benzo[d][1,2,3]triazol-5-yl)-2-cyclobutyl-2-phenylvinyl)phenyl)-N-(2-hydroxyethyl)acrylamide] | ++ (++ = a single % value ≧ 40%) | ≤ 100 | ≥ 40 | ≤ 100 |
| O=C(/C=C/c1ccc(/C(=C(\c2ccccc2)C2CCC2)c2cccc3[nH]ncc23)cc1)NCCO [Example 183, (E)-3-(4-((E)-2-Cyclobutyl-1-(1H-indazol-4-yl)-2-phenylvinyl)phenyl)-N-(2-hydroxyethyl)acrylamide] | ++ (++ = a single % value ≧ 40%) | ≤ 100 | ≥ 40 | ≤ 100 |
| CC/C(=C(/c1ccc(/C=C/C(=O)NC)cc1)c1ccc2scnc2c1)c1ccc(F)cc1Cl [Example 184, (E)-3-(4-((E)-1-(Benzo[d]thiazol-5-yl)-2-(2-chloro-4-fluorophenyl)but-1-en-1-yl)phenyl)-N-methylacrylamid] | ++ (++ = a single % value ≧ 40%) | ≤ 100 | ≥ 40 | ≤ 100 |
